“And” between values parts separate entries of the source, which are not always exact repeats. Identical values can stand only once.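 96-well plates; 48 h exposure; 5 concentrations. Endpoints by linear interpolation between flanking doses. Not reached: highest tested concentration assigned. GI50 = concentration required for 50% inhibition of growth. At the TGI there is no net growth.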
Columns and labels:
Assay in all cases: NCI-60 cell line screen, 48 h
HOP-62 NSCLC = test system: HOP-62 NSCLC
KM12 colon = test system: KM12 colon
U251 CNS = test system: U251 CNS
IGROV1 ovarian = test system: IGROV1 ovarian
OVCAR-3 ovarian = test system: OVCAR-3 ovarian
NCI-H226 lung = test system: NCI-H226 lung
SF-295 CNS = test system: SF-295 CNS
MOLT-4 leukemia = test system: MOLT-4 leukemia
OVCAR-5 ovarian = test system: OVCAR-5 ovarian
UACC-62 melanoma = test system: UACC-62 melanoma

| Structure (SMILES) | GI50 (HOP-62 NSCLC) | TGI (HOP-62 NSCLC) | GI50 (KM12 colon) | TGI (KM12 colon) | TGI (U251 CNS) | GI50 (IGROV1 ovarian) | TGI (IGROV1 ovarian) | GI50 (OVCAR-3 ovarian) | TGI (OVCAR-3 ovarian) | GI50 (NCI-H226 lung) | TGI (NCI-H226 lung) | TGI (SF-295 CNS) | GI50 (MOLT-4 leukemia) | TGI (MOLT-4 leukemia) | GI50 (OVCAR-5 ovarian) | TGI (OVCAR-5 ovarian) | GI50 (UACC-62 melanoma) | TGI (UACC-62 melanoma) | GI50 (U251 CNS) | GI50 (SF-295 CNS) |
| --- | --- | --- | --- | --- | --- | --- | --- | --- | --- | --- | --- | --- | --- | --- | --- | --- | --- | --- | --- | --- |
| CC1CC(C)CC(C)C(O)/C(C#N)=C/C=C/CC(C2CCCC2C(=O)O)OC(=O)CC(O)C(C)C1 (stereo not drawn) | 18.3 nM | 0.108 µM and 0.0648 µM | 47.3 nM and < 15.8 nM | 0.216 µM and 0.227 µM | 0.0547 µM and 0.0449 µM | 23.1 nM | 0.128 µM and 0.0412 µM | 35.8 nM and 17.8 nM | 0.199 µM and 0.0879 µM | 31 nM | 0.0951 µM and 0.029 µM | 0.203 µM and 0.222 µM | 26.9 nM | 0.0641 µM and 0.209 µM | 23 nM | 0.282 µM and < 0.0365 µM | 11.2 nM | 0.0296 µM and 0.015 µM |  |  |
| c1ccc(-c2nc(-c3ccccn3)nc(-c3ccccn3)n2)nc1 | 30400 nM | > 100 µM | 32400 nM | > 100 µM | > 100 µM | 15800 nM | 55.2 µM | 25400 nM | > 100 µM | 44900 nM | > 100 µM | > 100 µM | 21200 nM | > 100 µM | > 100000 nM | > 100 µM | 28000 nM | > 100 µM | 48600 nM | 21200 nM |
| O=c1oc2ccccc2c2c1Sc1ccccc1N2 |  | > 100 µM |  | > 100 µM | > 100 µM |  | > 100 µM |  | > 100 µM |  | > 100 µM | > 100 µM |  | > 100 µM |  | > 100 µM |  | > 100 µM |  |  |
| CCCN1C(=O)NC(=O)C(CC)(N2C(=O)c3c(F)c(F)c(F)c(F)c3C2=O)C1=O (stereo not drawn) | 2040 nM | 4.4 µM | 1420 nM | 2.84 µM | 3.76 µM | 1580 nM | 3.67 µM | 1690 nM | 3.16 µM | 3080 nM | 12.1 µM | 14.6 µM | 2710 nM | 8.65 µM | 2040 nM | 4.11 µM | 1990 nM | 5.94 µM | 1410 nM | 3930 nM |
| CN(C)c1cc2ccccc2oc1=O |  | > 100 µM |  | > 100 µM | > 100 µM |  | > 100 µM |  | > 100 µM |  | > 100 µM | > 100 µM |  | > 100 µM |  | > 100 µM |  | > 100 µM |  |  |
| CC1=C([Se]CC(OC(=O)CC[Se]c2ccccc2)C(=O)NC(C)(C)C)C(=O)c2ccccc2C1=O (stereo not drawn) | 357 nM | 1.7 µM | 1590 nM | 3.2 µM | 3.77 µM | 1530 nM | 2.94 µM | 1610 nM | 3.11 µM | 2000 nM | 4.56 µM | 1.37 µM | 545 nM | 3.44 µM | 1750 nM | 3.18 µM | 1480 nM | 2.83 µM | 1140 nM | 316 nM |
| COc1ccc(C2=Nn3c(nnc3-c3cc(Cl)cc(Cl)c3Cl)SC2)cc1 | 478 nM | > 36.2 µM | 384 nM | 8.89 µM | 24.7 µM | 339 nM | 3.59 µM | 173 nM | 0.772 µM | 778 nM | > 100 µM | 1.4 µM | 1490 nM | > 100 µM | 1420 nM | > 100 µM | 436 nM | > 100 µM | 412 nM | 57.6 nM |
| Cn1ccnc1CCc1c(Cl)cccc1Cl |  | > 100 µM |  | > 100 µM | > 100 µM |  | > 100 µM |  | > 100 µM |  | > 100 µM | > 100 µM |  | > 100 µM |  | > 100 µM |  | > 100 µM |  |  |
| CN(C)CCNC(=O)Cn1ccc(=O)c2cc([N+](=O)[O-])ccc21 |  | > 100 µM |  | > 100 µM | > 100 µM |  | > 100 µM |  | > 100 µM |  | > 100 µM | > 100 µM |  | > 100 µM |  | > 100 µM |  | > 100 µM |  |  |
| CC1=C(C(=O)Nc2ccccc2C)C(c2ccc(Cl)cc2)C(C(=O)Nc2ccccc2C)=C(C)N1 |  | > 100 µM |  | > 100 µM | > 100 µM |  | > 100 µM |  | > 100 µM |  | > 100 µM | > 100 µM |  | > 100 µM |  | > 100 µM |  | > 100 µM |  |  |
| COc1cc(C)ccc1C(=O)c1ccc(C)cc1OC | 3110 nM | > 100 µM | 926 nM | > 100 µM | > 100 µM | 6580 nM | > 100 µM | 2100 nM | 6.55 µM | 4450 nM | 72.7 µM | 43.4 µM | 7660 nM | > 100 µM | 7020 nM | > 100 µM | 4450 nM | > 100 µM | 3060 nM | 1950 nM |
| C/C=C/C(C#N)O[Si](C)(C)C (stereo not drawn) |  | > 100 µM |  | > 100 µM | > 100 µM |  | > 100 µM |  | > 100 µM |  | > 100 µM | > 100 µM |  | > 100 µM |  | > 100 µM |  | > 100 µM |  |  |
| Cc1c2cnccc2c(C)c2c1c1cc(C#N)ccc1n2C | 115 nM | 1.42 µM | 243 nM | 1.98 µM | 1.12 µM | 140 nM | 1.1 µM | 215 nM | 0.792 µM | 112 nM | 0.379 µM | 0.859 µM | 95.9 nM | 1.68 µM | 262 nM | 1.47 µM | 148 nM | 0.343 µM | 204 nM | 201 nM |
| O=C(COc1ccccc1Cl)N1N=C(c2ccc(Cl)cc2)CC1(O)c1ccccc1 (stereo not drawn) |  | > 100 µM |  | > 100 µM | > 100 µM |  | > 100 µM |  | > 100 µM |  | > 100 µM | > 100 µM |  | > 100 µM |  | > 100 µM |  | > 100 µM |  |  |
| IC[P+]1(c2ccccc2)CCCC1 |  | > 100 µM |  | > 100 µM | 29.4 µM |  | > 100 µM |  | > 100 µM |  | 89 µM | > 100 µM |  | > 100 µM |  | > 100 µM |  | > 100 µM |  |  |
| CC(=O)Nc1ccc(-c2cc(C(=O)O)c3cc4ccccc4cc3n2)cc1 |  | > 100 µM |  | > 100 µM | > 100 µM |  | > 100 µM |  | > 100 µM |  | > 100 µM | > 100 µM |  | > 100 µM |  | > 100 µM |  | > 100 µM |  |  |
